Laboratory results published in PubChem BioAssay AID330 (DTP/NCI, 2004).
Values joined by “and” are separate entries in the source; they are usually repeats but may differ in a detail not shown here. Identical values can stand only once. Toxic doses and inconclusive results are not listed. Rule for the calls: active = survival T/C of 150% or more; inactive = T/C below 125% in these data.

Tested on: P388 leukemia ip, CD2F1 mice, survival T/C
Experiment: NCI In Vivo Anticancer Drug Screen. Data for tumor model P388 Leukemia (intraperitoneal) in CD2F1 (CDF1) mice
Settings: endpoint: median survival time, higher = longer survival
Summary of the method: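 Mice carrying the transplanted tumor received test compound or vehicle. Survival was recorded in each group, and the value is the treated-group measurement divided by that of the vehicle-treated control group.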

[1] = dose: 50.0 mg/kg/injection, schedule: Q01DX009 (ip), vehicle: saline with Tween-80
[2] = dose: 100.0 mg/kg/injection, schedule: Q01DX009 (ip), vehicle: saline with Tween-80
[3] = dose: 50.0 mg/kg/injection, schedule: Q01DX005 (ip), vehicle: saline with Tween-80
[4] = dose: 100.0 mg/kg/injection, schedule: Q01DX005 (ip), vehicle: saline with Tween-80
[5] = dose: 200.0 mg/kg/injection, schedule: Q01DX005 (ip), vehicle: saline with Tween-80
[6] = dose: 50.0 mg/kg/injection, schedule: Q04DX002 (ip), vehicle: saline

Measured: T/C

CC(=O)Nc1ccc(C(F)(F)F)cc1
inactive: dose: 25.0 mg/kg/injection, schedule: Q01DX009 (ip), vehicle: suspension in saline 94 % of control | dose: 50.0 mg/kg/injection, schedule: Q01DX009 (ip), vehicle: suspension in saline 94 % of control | dose: 100.0 mg/kg/injection, schedule: Q01DX009 (ip), vehicle: suspension in saline 86 % of control

O=[N+]([O-])c1ccccc1OCC1CO1 (stereo not drawn)
inactive: dose: 25.0 mg/kg/injection, schedule: Q01DX009 (ip), vehicle: Klucel (hydroxypropylcellulose) (HPC) 106 % of control | dose: 50.0 mg/kg/injection, schedule: Q01DX009 (ip), vehicle: Klucel (hydroxypropylcellulose) (HPC) 105 % of control | dose: 100.0 mg/kg/injection, schedule: Q01DX009 (ip), vehicle: Klucel (hydroxypropylcellulose) (HPC) 105 % of control

CCCCCc1ccccc1O
inactive: [1] 100 % of control | [2] 95 % of control

COc1ccc(C(c2cc3c(cc2O)OCO3)N2CCCCC2)c(OC)c1 (stereo not drawn)
inactive: dose: 60.0 mg/kg/injection, schedule: Q01DX005 (ip), vehicle: Klucel (hydroxypropylcellulose) (HPC) 108 % of control | dose: 120.0 mg/kg/injection, schedule: Q01DX005 (ip), vehicle: Klucel (hydroxypropylcellulose) (HPC) 110 % of control | dose: 240.0 mg/kg/injection, schedule: Q01DX005 (ip), vehicle: Klucel (hydroxypropylcellulose) (HPC) 117 % of control

CCOC(=O)c1cnc2c(OC)ccc(OC)c2c1Cl
inactive: [3] 97 % of control | [4] 97 % of control | [5] 99 % of control

CC1(C)N=C(N)N=C(N)N1c1cccc(CC(=O)Nc2ccc(S(=O)(=O)F)cc2)c1
inactive: dose: 200.0 mg/kg/injection, schedule: Q04DX003 (ip), vehicle: saline with Tween-80 122 % of control

O=c1c2ccccc2cnn1CO
inactive: dose: 100.0 mg/kg/injection, schedule: Q04DX003 (ip), vehicle: saline 114 % of control | dose: 200.0 mg/kg/injection, schedule: Q04DX003 (ip), vehicle: saline 119 % of control

Cc1c(C)c(C[P+](CCP(c2ccccc2)c2ccccc2)(c2ccccc2)c2ccccc2)c(C)c(C)c1C[P+](CCP(c1ccccc1)c1ccccc1)(c1ccccc1)c1ccccc1
inactive: dose: 3.12 mg/kg/injection, schedule: Q04DX002 (ip), vehicle: saline with Tween-80 100 % of control | dose: 6.25 mg/kg/injection, schedule: Q04DX002 (ip), vehicle: saline with Tween-80 102 % of control | dose: 12.5 mg/kg/injection, schedule: Q04DX002 (ip), vehicle: saline with Tween-80 100 % of control and 101 % of control

COC(CCC(C)C1OC23CC(OC(=O)CC(C(C)O)OC(=O)CC(O)(O2)C(C)CC3(C)C)C1C)c1cccc(O)c1 (stereo not drawn)
inactive: dose: 3.12 micrograms/kg/injection, schedule: Q01DX009 (ip), vehicle: saline + Tween-80 + alcohol 101 % of control | dose: 6.25 micrograms/kg/injection, schedule: Q01DX009 (ip), vehicle: saline + Tween-80 + alcohol 107 % of control and 109 % of control and 86 % of control | dose: 12.5 micrograms/kg/injection, schedule: Q01DX009 (ip), vehicle: saline + Tween-80 + alcohol 108 % of control | dose: 25.0 micrograms/kg/injection, schedule: Q01DX009 (ip), vehicle: saline + Tween-80 + alcohol 111 % of control and 117 % of control | dose: 50.0 micrograms/kg/injection, schedule: Q01DX009 (ip), vehicle: saline + Tween-80 + alcohol 115 % of control and 117 % of control

COc1ccc(CC[n+]2cccc(C(=O)c3ccccc3)c2)cc1OC
inactive: dose: 12.5 mg/kg/injection, schedule: Q04DX002 (ip), vehicle: saline 97 % of control | dose: 25.0 mg/kg/injection, schedule: Q04DX002 (ip), vehicle: saline 105 % of control | [6] 101 % of control

NC(CCl)=NC1CCCCC1
inactive: dose: 10.0 mg/kg/injection, schedule: Q04DX003 (ip), vehicle: saline 109 % of control | dose: 15.0 mg/kg/injection, schedule: Q04DX003 (ip), vehicle: saline 107 % of control | dose: 22.0 mg/kg/injection, schedule: Q04DX003 (ip), vehicle: saline 111 % of control | dose: 33.0 mg/kg/injection, schedule: Q04DX003 (ip), vehicle: saline 116 % of control

Cc1ccc2c(ccc3c[n+]4ccccc4c(C)c32)c1
inactive: dose: 2.2 mg/kg/injection, schedule: Q01DX009 (ip), vehicle: saline with Tween-80 122 % of control | dose: 3.3 mg/kg/injection, schedule: Q01DX009 (ip), vehicle: saline with Tween-80 114 % of control | dose: 5.0 mg/kg/injection, schedule: Q01DX009 (ip), vehicle: saline with Tween-80 122 % of control | dose: 6.25 mg/kg/injection, schedule: Q04DX003 (ip), vehicle: other 112 % of control | dose: 7.5 mg/kg/injection, schedule: Q01DX009 (ip), vehicle: saline with Tween-80 120 % of control | dose: 12.5 mg/kg/injection, schedule: Q04DX003 (ip), vehicle: other 112 % of control | dose: 25.0 mg/kg/injection, schedule: Q04DX003 (ip), vehicle: other 108 % of control

Cn1c(C(C)(O)c2cc3c(Cl)nccc3n2C)cc2c(Cl)nccc21
inactive: dose: 50.0 mg/kg/injection, schedule: Q01DX005 (ip), vehicle: Klucel (hydroxypropylcellulose) (HPC) 103 % of control | dose: 100.0 mg/kg/injection, schedule: Q01DX005 (ip), vehicle: Klucel (hydroxypropylcellulose) (HPC) 105 % of control | dose: 200.0 mg/kg/injection, schedule: Q01DX005 (ip), vehicle: Klucel (hydroxypropylcellulose) (HPC) 106 % of control

Cc1nn(-c2ccccn2)c2ncnc(N)c12
inactive: [3] 95 % of control | [4] 101 % of control | [5] 95 % of control

CC(=O)N(O)CC(=O)OCc1ccccc1
inactive: dose: 12.5 mg/kg/injection, schedule: Q01DX009 (ip), vehicle: other 96 % of control | dose: 25.0 mg/kg/injection, schedule: Q01DX009 (ip), vehicle: other 104 % of control | dose: 50.0 mg/kg/injection, schedule: Q01DX009 (ip), vehicle: other 102 % of control | dose: 100.0 mg/kg/injection, schedule: Q01DX009 (ip), vehicle: other 111 % of control | dose: 200.0 mg/kg/injection, schedule: Q01DX009 (ip), vehicle: other 100 % of control

O=C(Nc1ccc(Cl)cc1)OCC12COCN1COC2
inactive: [1] 87 % of control | [2] 95 % of control

COc1cc(-c2nnc(C3CCC(=O)N3Cc3ccccc3)o2)cc(OC)c1OC (stereo not drawn)
inactive: dose: 60.0 mg/kg/injection, schedule: Q01DX005 (ip), vehicle: saline with Tween-80 103 % of control | dose: 120.0 mg/kg/injection, schedule: Q01DX005 (ip), vehicle: saline with Tween-80 100 % of control | dose: 240.0 mg/kg/injection, schedule: Q01DX005 (ip), vehicle: saline with Tween-80 97 % of control

BrCc1ccc2c(c1)CCC2
inactive: dose: 50.0 mg/kg/injection, schedule: Q01DX009 (ip), vehicle: distilled water + alcohol 106 % of control | dose: 100.0 mg/kg/injection, schedule: Q01DX009 (ip), vehicle: distilled water + alcohol 113 % of control | dose: 200.0 mg/kg/injection, schedule: Q01DX009 (ip), vehicle: distilled water + alcohol 97 % of control

COc1ccc(C2=C(O)c3cc4ccccc4nc3S2(=O)=O)cc1
inactive: [6] 103 % of control | dose: 100.0 mg/kg/injection, schedule: Q04DX002 (ip), vehicle: saline 100 % of control | dose: 200.0 mg/kg/injection, schedule: Q04DX002 (ip), vehicle: saline 102 % of control

Cc1c([O-])[n+](Cc2ccccc2)nn1C
inactive: dose: 25.0 mg/kg/injection, schedule: Q01DX009 (ip), vehicle: water 89 % of control

COc1ccc(/C=C/C(CCN(C)C)=N/NC(=S)Nc2ccc(Cl)cc2)cc1
inactive: dose: 100.0 mg/kg/injection, schedule: Q01DX001 (ip), vehicle: saline with Tween-80 89 % of control | dose: 200.0 mg/kg/injection, schedule: Q01DX001 (ip), vehicle: saline with Tween-80 90 % of control | dose: 400.0 mg/kg/injection, schedule: Q01DX001 (ip), vehicle: saline with Tween-80 90 % of control

COc1ccc(CS(=O)(=O)c2cnc(N/N=C/c3ccc([N+](=O)[O-])o3)nc2N)c(OC)c1
inactive: dose: 100.0 mg/kg/injection, schedule: Q01DX001 (ip), vehicle: saline 94 % of control | dose: 200.0 mg/kg/injection, schedule: Q01DX001 (ip), vehicle: saline 94 % of control | dose: 400.0 mg/kg/injection, schedule: Q01DX001 (ip), vehicle: saline 92 % of control
